The values that follow come from patent publication US7169792B2, “Method of treating bacterial infections using gemifloxacin or a salt thereof and a β-lactam antibiotic” (priority 2002, dated 2007).

For orientation: MIC means the least concentration at which growth counts as inhibited.

Read-outs that look alike come from different tables or passages of the source.

In experiment [1] the test system is clinically isolated P. aeruginosa strains. The experiment is described as follows: checkerboard method, gemifloxacin or ciprofloxacin with ceftazidime, 6 clinical isolates (Example 5). It counts as cell-based, Pseudomonas aeruginosa. The note with it: for FICA: FIC of gemifloxacin; for Cgemifloxacin MIC: in combination with ceftazidime; for MIC: Pseudomonas aeruginosa, drug alone, read-out: gemifloxacin MIC. As for the experimental part: Minimal inhibitory concentrations (MICs) for each separate drug were determined. For wells along the growth-no growth interface, synergy was determined by calculating the Fractional Inhibitory Concentration (FIC) index. The Fractional Inhibitory Concentration (FIC) indices were calculated using the following formula: FICindex=FICA+FICB=[A]/MICA+[B]/MICB • Wherein: • FICA(or B), is the FIC of drug A (or B) MICA (or B) is the MIC of the organism to drug A (or B) • A (or B) is concentration of drug A (or B) that is the lowest inhibitory concentration
The FIC indices were interpreted using the following criteria: • ≦0.5=Synergy • >0.5–1.0=Additive • >1.0–4.0=Indifference • >4.0=Antagonism
The test organisms were clinical isolates collected in Korea. Organisms were frozen at −70 C. prior to testing. […] Gemifloxacin or ciprofloxacin solution was dispensed alone in the first row and combined with ceftazidime in the remaining rows. Ceftazidime as also dispensed alone in the first row in the first column. Test strains of P. aeruginosa were grown for 18 h in Mueller-Hinton broth, and then these overnight cultures were diluted with the same fresh medium to the density of approximately 10^7 CFU/mL. The bacterial concentrations were determined by measuring optical density or turbidity of the suspension and were verified by standard colony counts on antibiotic-free agar plates. A diluted bacterial solution was applied to 96-well plates containing serially diluted antimicrobial agents to yield 5×10^5 CFU/mL. Plates were incubated at 35 C for 18 hours.
MICs for each separate drug were determined, and for wells along the growth-no growth interface, synergy was determined by calculating FIC Indices as in Example 4. FIC Indices were calculated and interpreted as in Example 4.

The test system of the next experiment is E. coli ATCC 25922. The experiment is described as follows: checkerboard titration, gemifloxacin and cefaclor (MIC, FIC). It counts as cell-based, Escherichia coli. As for the experimental part:
(§1) Checkerboard microtitre broth dilution plates were prepared using the Hamilton MicroLab AT Plus system (Reno, Nev.). Two-fold serial dilutions (50 μl) of cefotaxime were made in columns 1 through 11 of a microtitre plate. Two-fold serial dilutions of gemifloxacin were prepared manually and the MicroLab AT Plus was used to dispense 25 μl of gemifloxacin at each concentration into rows A through G of the microtitre plate. The concentration range tested varied for each drug/organism combination to encompass the MIC endpoints of the individual components. Column 12 contained two fold serial dilutions of gemifloxacin only, and row H contained two fold serial dilutions of cefotaxie only. The last well (H) in column 12 was used as a positive growth control well, containing only medium and test isolate.
(§2) The bacteria were diluted to a 0.5 McFarland standard and then further diluted 1/50. Each well was inoculated with 25 μl of the isolate to give a final inoculum density of approximately 5×10^5 cfu/ml. The MicroLab AT Plus 2 was used to add the inoculum to the microtitre plates. After inoculation, the plates were covered with a 96 well microtitre plate lid and incubated at 35° C. in ambient air for 20–24 hours. A 10 μl aliquot of the inoculum was plated on trypticase soy agar containing 5% sheep blood to determine the purity of the final test inoculum.
(§3) Following incubation, a microtitre mirror reader (Cooke Instruments Ltd., England) was used to assist in determining the microdilution MIC endpoints. The MIC was determined as the lowest concentration of compound that inhibited visible growth of the organism.
(§4) The Fractional Inhibitory Concentrations (FICs) were calculated using the following formula: (A)/(MICA)+(B)/(MICB)=FICA+FICB=FICIndex wherein: • A is the MIC of drug A in the presence of drug B • B is the MIC of drug B in the presence of drug A • MIC A is the MIC of the organism to drug A alone • MIC B is the MIC of the organism to drug B alone • FIC A is the fractional inhibitory concentration of drug A • FIC B is the fractional inhibitory concentration of drug B
(§5) The FIC indices were interpreted using the following criteria: • ≦0.5=Synergy • >0.5–1=Additive • >1–2=Indifference • >2=Antagonism
3) E. coli ATCC 25922 was obtained from the SmithKline Beecham Anti-Infectives Research Culture Collection and stored at −80° C. in 10% glycerol. Before testing, the isolate was passaged onto agar plates (trypticase soy agar containing 5% sheeps blood) from the frozen stock for two consecutive days. […]
The combined effect of gemifloxacin and cefaclor was investigated in E. coli ATCC 25922 by using the checkerboard titration method described in Example 1. FIC Indices were calculated and interpreted as in Example 1.

A further experiment has as its system S. saprophyticus 662. Put plainly: checkerboard titration, gemifloxacin and amoxicillin (MIC, FIC). It counts as cell-based, Staphylococcus saprophyticus.
Another experiment deals with E. faecalis ATCC 29212. The experiment is described as follows: checkerboard titration, gemifloxacin and cefotaxime (MIC, FIC). It counts as cell-based, Enterococcus faecalis. As for the experimental part: 1) The combined effect of gemifloxacin and cefotaxime was investigated in E. faecalis by using a checkerboard titration method. Evaluation for synergistic activity was carried out by calculation of fractional inhibitory concentrations (FICs) according to the method of Eliopoulos et al (1996, Antimicrobial Combinations, Antibiotics in Laboratory Medicine, Victor Lorian, 4th Edition, pp 337–338, Baltimore, Md., Williams and Wilkins).
E. faecalis ATCC 29212 was obtained from the SmithKline Beecham Anti-Infectives Research Culture Collection and stored at −80° C. in 10% glycerol. Before testing, the isolate was passaged onto agar plates (trypticase soy agar containing 5% sheeps blood) from the frozen stock for two consecutive days. Cation adjusted Mueller Hinton broth (BBL, Cockeysville, Md.) was used for the isolate.
as §1, §2, §3, §4, §5

The mark [2] stands for this setting: drug alone, no unit in this line (other lines μg/ml).

Method for S. saprophyticus 662: The concentration range tested varied for each drug/organism combination to encompass the MIC endpoints of the individual components. […] The last well (H) in column 12 was used as a positive growth control well, containing only medium and test isolate.
The bacteria were diluted to a 0.5 McFarland standard and then further diluted 1/50. Each well was inoculated with 25 μl of the isolate to give a final inoculum density of approximately 5×10^5 cfu/ml. […] After inoculation, the plates were covered with a 96 well microtitre plate lid and incubated at 35° C. in ambient air for 20–24 hours. A 10 μl aliquot of the inoculum was plated on trypticase soy agar containing 5% sheep blood to determine the purity of the final test inoculum.
2) S. saprophyticus 662 was obtained from the SmithKline Beecham Anti-Infectives Research Culture Collection and stored at −80° C. in 10% glycerol. Before testing, the isolate was passaged onto agar plates (trypticase soy agar containing 5% sheeps blood) from the frozen stock for two consecutive days. Cation adjusted Mueller Hinton broth (BBL, Cockeysville, Md.) was used for the isolate.
The combined effect of gemifloxacin and amoxicillin was investigated in S. saprophyticus 662 by using the checkerboard titration method described in Example 1.

With `CO/N=C1\CN(c2nc3c(cc2F)c(=O)c(C(=O)O)cn3C2CC2)CC1CN` (racemic) [gemifloxacin, (R,S)-7-(3-aminomethyl-4-methoxyiminopyrrolidin-1-yl)-1-cyclopropyl-6-fluoro-4-oxo-1,4-dihydro-1,8-naphthyridine-3-carboxylic acid], the FICA in experiment [1] (P. aeruginosa 6140) came out at 0.06; in experiment [1] (P. aeruginosa 6168) it was 0.13; in experiment [1] (P. aeruginosa P003), 0.06. Also, the “Cgemifloxacin MIC” value in experiment [1] (P. aeruginosa 6140) came out at 0.5 µg/mL; in experiment [1] (P. aeruginosa 6168), 0.0625 µg/mL; in experiment [1] (P. aeruginosa P003), 0.125 µg/mL. Moreover, the minimal inhibitory concentration (MIC) was 8 µg/mL in experiment [1] (P. aeruginosa 6140); 0.5 µg/mL in experiment [1] (P. aeruginosa 6168); 2 µg/mL in experiment [1] (P. aeruginosa P003); 0.002 µg/mL with E. coli ATCC 25922 (Escherichia coli, ATCC25922, in presence of cefaclor 1 μg/ml, read-out: gemifloxacin MIC); 0.004 µg/mL in the experiment with S. saprophyticus 662 (Staphylococcus saprophyticus, 662, in presence of amoxicillin 0.125 μg/ml, read-out: gemifloxacin MIC); 0.008 µg/mL in the experiment on E. faecalis ATCC 29212 (Enterococcus faecalis, ATCC29212, in presence of cefotaxime 64 μg/ml, read-out: gemifloxacin MIC). Besides, the “gemifloxacin MIC” value was 0.008 in the experiment with E. coli ATCC 25922 (setting [2]); 0.016 in the experiment on S. saprophyticus 662 (setting [2]); 0.03 in the experiment with E. faecalis ATCC 29212 (setting [2]); 0.008 µg/mL in the experiment with E. faecalis ATCC 29212 (in presence of cefotaxime 16 μg/ml); 0.008 µg/mL with E. faecalis ATCC 29212 (in presence of cefotaxime 32 μg/ml).
